Experimental data reported in US8217001B2, “Modification of feeding behavior” (Imperial Innovations Limited, priority 2001, dated 2012).
Where two headings read alike, the source gives them in different places.

Key:
[1] = system: GABAergic IPSCs onto POMC neurons; experiment: GABAergic inhibitory postsynaptic currents (IPSCs) recorded in POMC neurons of hypothalamic slices; format: cell-based, mouse
[2] = Food intake after injection into the arcuate nucleus of fasted rats; format: in vivo, rat; settings: rats fasted 24 hours
Description: (§1) Arcuate and paraventricular nuclei cannulations and injections were performed as previously described (Glaum et al., Mol. Pharmacol. 50, 230-5, 1996; Lee et al., J. Physiol (Lond) 515, 439-52; 1999; Shiraishi et al., Nutrition 15, 576-9, 1999). Correct intranuclear cannula placement was confirmed histologically at the end of each study period (Glaum et al., Mol. Pharmacol. 50, 230-5, 1996; Lee et al., J. Physiol (Lond) 515, 439-52, 1999; Shiraishi et al., Nutrition 15, 576-9, 1999). All animal procedures were approved under the British Home Office Animals (Scientific Procedures) Act, 1986. All injection studies on fasting animals were performed in the early light-phase (0800-0900). All dark-phase feeding studies injections were performed just prior to lights off.

[3] = system: NPY and α-MSH release from hypothalamic explants; experiment: Neuropeptide release from hypothalamic explants (RIA); format: cell-based, rat; settings: 50 nM
Description: Hypothalamic explants: Male Wistar rats were killed by decapitation and the whole brain immediately removed, mounted with the ventral surface uppermost and placed in a vibrating microtome (Biorad, Microfield Scientific Ltd., Devon, UK). A 1.7 mm slice was taken from the base of the brain to include the PVN and the ARC and immediately transferred to 1 ml of artificial CSF (aCSF) (Kim et al., J. Clin. Invest. 105, 1005-11, 2000) equilibrated with 95% O2 and 5% CO2 and maintained at 37° C. After an initial 2-hour equilibration period, with aCSF replaced every 60 minutes, the hypothalami were then incubated for 45 minutes in 600 μl aCSF (basal period) before being exposed to the Y2A […] in 600 μl aCSF. Finally, the viability of the tissue was verified by a 45 minute exposure to 56 mM KCL; isotonicity was maintained by substituting K^+ for Na^+.

[4] = Food intake after injection into the paraventricular nucleus (PVN) of fasted rats; format: in vivo, rat
Description: as §1, with “Animals: Male Wistar rats (200-250 g), 7-8 weeks old (Charles River Laboratories, United Kingdom) were maintained under controlled temperature (21-23° C.) and light conditions (lights on 07:00-19:00) with ad libitum access to water and food (RM1 diet; SDS Ltd., Witham, United Kingdom) except where stated. Arcuate” for “Arcuate”

POMC neurons = experiment: Whole cell recordings of membrane potential, currents and action potentials in EGFP-labeled POMC neurons of hypothalamic (ARC) slices; format: cell-based, mouse
NPY Y5 receptor = target: T1, NPY Y5 receptor (Homo sapiens, UniProt Q15761); experiment: Receptor-binding studies on cell lines expressing NPY Y5 receptor
T1 construct: host or cells: unnamed cell line expressing the receptor
T1 sequence (Q15761 1-445): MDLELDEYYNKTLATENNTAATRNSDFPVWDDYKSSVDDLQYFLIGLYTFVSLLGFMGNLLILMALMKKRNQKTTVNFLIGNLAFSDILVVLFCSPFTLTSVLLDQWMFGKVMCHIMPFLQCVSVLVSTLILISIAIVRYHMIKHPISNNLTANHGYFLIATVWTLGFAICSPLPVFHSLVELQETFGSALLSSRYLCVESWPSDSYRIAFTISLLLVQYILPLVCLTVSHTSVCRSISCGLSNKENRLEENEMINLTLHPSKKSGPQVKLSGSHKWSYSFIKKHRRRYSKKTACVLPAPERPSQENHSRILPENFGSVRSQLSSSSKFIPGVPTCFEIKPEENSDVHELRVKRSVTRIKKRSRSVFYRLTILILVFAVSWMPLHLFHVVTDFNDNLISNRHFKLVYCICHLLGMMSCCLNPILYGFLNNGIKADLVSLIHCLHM

NPY Y2 receptor = target: T2, NPY Y2 receptor (Homo sapiens, UniProt P49146); experiment: Receptor-binding studies on cell lines expressing NPY Y2 receptor
T2 construct: host or cells: unnamed cell line expressing the receptor
T2 sequence (P49146 1-381): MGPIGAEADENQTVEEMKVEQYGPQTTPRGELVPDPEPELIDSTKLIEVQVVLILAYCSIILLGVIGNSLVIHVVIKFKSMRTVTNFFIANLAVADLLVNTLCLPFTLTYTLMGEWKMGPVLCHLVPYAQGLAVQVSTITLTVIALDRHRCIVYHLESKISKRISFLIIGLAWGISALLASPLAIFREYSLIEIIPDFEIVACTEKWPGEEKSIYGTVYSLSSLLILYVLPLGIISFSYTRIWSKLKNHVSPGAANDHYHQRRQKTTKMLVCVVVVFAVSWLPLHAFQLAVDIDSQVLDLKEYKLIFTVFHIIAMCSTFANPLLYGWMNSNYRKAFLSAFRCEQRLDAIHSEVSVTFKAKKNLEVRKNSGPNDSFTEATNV

NPY Y1 receptor = NPY Y1 receptor (Homo sapiens, UniProt P25929); experiment: biochemical; format: binding
Sequence of NPY Y1 receptor (P25929 whole entry): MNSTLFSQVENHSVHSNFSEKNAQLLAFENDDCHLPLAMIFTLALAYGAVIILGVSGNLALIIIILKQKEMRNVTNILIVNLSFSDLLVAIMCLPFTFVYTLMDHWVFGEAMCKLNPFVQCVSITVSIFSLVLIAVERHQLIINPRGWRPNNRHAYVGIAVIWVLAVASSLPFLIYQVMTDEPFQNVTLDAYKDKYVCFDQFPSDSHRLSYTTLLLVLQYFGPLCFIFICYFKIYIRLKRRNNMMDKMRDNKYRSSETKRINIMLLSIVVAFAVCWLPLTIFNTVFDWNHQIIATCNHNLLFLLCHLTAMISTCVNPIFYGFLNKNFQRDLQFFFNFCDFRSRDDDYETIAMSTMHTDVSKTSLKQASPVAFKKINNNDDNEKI

[5] = system: non-POMC neurons in the arcuate nucleus; experiment: Recordings from non-fluorescent (non-POMC) neurons in the arcuate nucleus; format: cell-based, mouse; settings: 13 cells tested; hyperpolarized 5, depolarized 3

NC1=N[C@H](O)[C@H]2[C@H]3O[C@]4(O)O[C@@H]([C@@H](O)[C@@]2(N1)[C@@H]4O)[C@]3(O)CO [TTX, tetrodotoxin]
effect on large amplitude IPSCs [1]: abolished large IPSCs

Ac-LRHYLNLLTRQRY-NH2 (C-terminus assumed) [Y2A, N-acetyl (Leu^28, Leu^31) NPY (24-36)]
food intake after intra-arcuate injection, dose dependence ([2]; 100 fmol-1 nmol): inhibited food intake
chow ingested 2 hours post-injection ([2]; intra-arcuate, 0.1 μmol, n=8): 6.2 ± 0.5 g
reduction of frequency of IPSCs onto POMC neurons [1]: 44.4±9.3%
α-MSH release from hypothalamic explants ([3]; 45 minutes (FIG. 8e)): concomitant increase in α-MSH release
NPY release from hypothalamic explants ([3]; 45 minutes (FIG. 8d)): significantly decreased NPY release
food intake after PVN injection ([4]; 100 fmol-1 nmol, rats fasted 24 hours): no alteration of food intake
food intake 2 hour post-injection ([4]; PVN, 0.1 nmol, n=8): 8.0 ± 0.6 g
depolarization of POMC neurons (POMC neurons; whole cell, PYY3-36 n=22, Y2A n=9): 8.7±1.8 mV

Ac-LRHYLNLLTRQRY-NH2 [Y2A, N-acetyl (Leu^28, Leu^31) NPY (24-36)]
IC50 (NPY Y5 receptor): > 5000 nM
IC50 (NPY Y2 receptor): 1.3 ± 0.2 nM
IC50 (NPY Y1 receptor): > 5000 nM

CTAP
effect on the current induced by Met-Enk in POMC cells (POMC neurons): completely prevented the current induced by Met-Enk

D-Trp^8-γMSH
frequency of action potentials (POMC neurons; 7 nM): decreased the frequency of action potentials

NPY
IPSCs in the presence of tetrodotoxin (TTX) [1]: still inhibited IPSCs
decrease of frequency of GABAergic IPSCs [1]: 55%
time to decrease of IPSC frequency ([1]; 100 nM): ≤ 3 min

met-enkephalin
spontaneous action potential generation (POMC neurons; 30 μM): prevented spontaneous action potential generation
time to hyperpolarization (rapid) (POMC neurons; 30 μM): 35 to 40 s
reversal-potential of the inwardly-rectifying opioid current (POMC neurons; 6.5 mM K+ Krebs, n=3): approximately −60 mV

picrotoxin
effect on IPSCs ([1]; 100 μM): blocked all IPSCs

B1: leptin: leptin applied to identified POMC cells in slice preparations (protein, UniProt P41160 22-167, looked up)
Leptin: VPIQKVQDDTKTLIKTIVTRINDISHTQSVSAKQRVTGLDFIPGLHPILSLSKMDQTLAVYQQVLTSLPSQNVLQIANDLENLRDLLHLLAFSKSCSLPQTSGLQKPESLDGVLEASLYSTEVVALSRLQGSLQDILQQLDVSPEC
IPSCs in the presence of tetrodotoxin (TTX) [1]: still inhibited IPSCs
decrease of frequency of GABAergic IPSCs ([1]; 100 nM (leptin: 5 out of 15 cells; NPY: all 12 cells)): 25%
effect on adjacent non-fluorescent ARC cells [5]: no effect on 5 of 13 adjacent non-fluorescent cells tested
reversal of the small inward current (POMC neurons; 100 nM): approximately −20 mV
mean±SEM depolarization (POMC neurons; 100 nM, n=45): 9.7±1.2 mV
time to depolarization (POMC neurons; 0.1-100 nM): 2 to 10 min
depolarization of POMC cells (POMC neurons; 0.1-100 nM, 72 of 77 cells): 3-30 mV
EC50 (POMC neurons; read-out: EC50 of concentration dependent depolarization of POMC cells): 5.9 nM
